Experimental data as given in patent US12304909B2, “Compounds and their use in therapy” (IMPERIAL COLLEGE INNOVATIONS LIMITED, priority 2018, dated 2025).

How the values were obtained:
MRC5 cells = assay: Metabolic activity assay (MTS assay), MRC5; type: cell-based, human
Description: Example NMT inhibitors of the present invention were tested for activity in an in vitro metabolic activity assay using the human cell line MRC5. Comparative Examples 1, 2, 3, 4, 5 and 6 were also tested in the same metabolic activity assay. Compounds having activity in inhibiting metabolic activity in the assay are expected to be useful as agents for preventing and/or treating cancer, by virtue of being inhibitors of human NMT1 and/or NMT2.
MRC5 cells (obtained from Dr David Mann's group, Imperial College; cell type: fibroblasts cells which derive from normal lung tissue) were grown in DMEM media (supplemented with 10% FBS) and were seeded in a 96-well plate, 24 h prior to treatment. Cell suspensions were prepared by adjusting the cell density to the appropriate concentration (as stated in the Table 1 below) and 50 μL of the cell suspension was transferred to wells B-G in columns 2-11 of a 96-well plate.
100 μL of growth media (DMEM media) containing 0.2% DMSO was added to wells B-G in columns 2 and 11 as positive controls, and 100 μl of growth media containing Puromycin (3 μg/mL; final concentration in the plate 2 μg/mL) was added to wells B-G in column 3 as a negative control. Seven concentrations of NMT inhibitor stock solution were prepared for each Example (Example 1 and 2) and each Comparative Example (Comparative Examples 1, 2, 3, 4, 5 and 6) tested (same final percentage of DMSO, dilution factor=3 starting from 15 μM or 150 μM). 100 μL of inhibitor stock solution was added to wells B-G in columns 4-10 of a 96-well plate (final concentration of Example compound or Comparative Example compound in the plate starting from 10 μM or 100 μM; total volume in each well was 150 μL). The plate was incubated at 37° C. with 5% CO2 level.
After 72 h, 20 μL MTS reagent (Promega, prepared according to the supplier protocol) was added to each well of the 96-well plate. The plate was incubated at 37° C. for 2 h and the absorbance per well was measured at 490 nm with an EnVision plate reader. The average absorbance value of the negative control (Puromycin-treated cells) was subtracted from each value and the metabolic activity was calculated as a percentage relative to the positive control (DMSO-treated cells). EC50 values were calculated using GraphPad.

Rat half life in vivo = conditions: plasma; rat oral half-life; male Sprague-Dawley rats, 3 mg/kg oral gavage; read-out: Rat or mouse t ½ (rat) (converted)
Description: Example Compound 1, and Comparative Examples 2 and 3 were tested for metabolic stability in male Sprague-Dawley rats. Comparative Example 5 was tested for metabolic stability in male CD-1 mice. Compounds having good metabolic stability in rats or mice are expected to be especially useful as agents for preventing and/or treating cancer, by having a long half-life in human patients.
Male Sprague-Dawley rats were fasted for 4 h before dosing. Groups of 3 rats were dosed with Example Compound 1, Comparative Example 2, or Comparative Example 3 • (i) intravenously at a dose of 1 mg/kg using a dose volume 2 mL/kg where the animals are anaesthetized using 3% v/v isoflurane:oxygen mixture and dose administered through lateral tail vein; or • (ii) orally by gavage (OG) at a dose of 3 mg/kg using a dose volume 5 ml/kg to conscious animals.
˜100 μL blood sample were collected after 5 min, 15 min, 30 min, 1 h, 2 h, 4 h, 8 h and 24 h (intravenous) and 15 min, 30 min, 1 h, 2 h, 4 h, 8 h and 24 h (oral) and transferred to heparinized capillary tubes, and subsequently into 0.5 mL microcentrifuge tubes. All blood samples are processed for plasma by centrifugation at 1640×g for 5 min at 4° C. within half an hour of collection. Plasma samples were stored at −20° C. until all samples were collected. All samples were mixed with ice-cold acetonitrile containing an internal standard (IS) in 1:4 v/v and centrifuged at 4000 rpm for 15 min at 15° C. Supernatant was then half diluted in water and loaded for LCMS/MS analysis. Analyte peak area/IS peak area (the ratio) was considered for further data analysis as described below.
Calibration curve and QC samples: Compound stock was prepared and further serial dilutions were carried out. The samples were spiked in blank plasma (1:50). Calibration curve ranged from 1 to 1250 ppb. Three quality control samples were also prepared-high QC (HQC), Mid QC (MQC and Low QC (LQC).

[1] = Human liver microsomes half life; type: in vitro ADME; conditions: pH 7.4, read-out: Human liver microsomes t ½
Description: Example Compound 1 was tested for metabolic stability in an assay using human liver microsomes. Comparative Examples 2, 3, 4, 5 and 6 were also tested in the same assay. Compounds having good metabolic stability in the assay are expected to be especially useful as agents for preventing and/or treating cancer, by having a long half-life in human patients
Frozen human liver microsomes obtained from Corning, USA (cat #452117) were thawed and diluted with 100 mM of pH 7.4 phosphate buffer to give a 1 mg/ml solution. An NADPH regeneration system (NRS) was prepared as a solution containing 13 mM NADP, 33 mM glucose-6-phosphate, 33 mM MgCl2 and 4U/mL glucose-6-phosphate dehydrogenase in 100 mM of pH7.4 phosphate buffer. The test compound (4 mM) in DMSO was diluted with acetonitrile to provide a 100 μM sub-stock then further diluted with 100 mM of pH7.4 phosphate buffer to provide a 2 μM working solution. The liver microsome solution and NRS were incubated at 37° C. before use. To each well of the test plate was dispensed 60 μL of buffer, 50 μL of test compound solution and 10 μL of NRS. A reaction was initiated by addition of 40 μL of liver microsome solution. Wells were incubated for an appropriate time (0, 5, 10, 20, 30 and 60 min) then quenched with 300 μL of acetonitrile containing reference standards atenolol, propranolol, diclofenac, verapamil). All plates were centrifuged at 3500 rpm for 20 min at 15° C. to pellet the debris. 110 μL supernatant was diluted 110 μL water and quantitated using LC-MS/MS.
The results were used to calculate the % Remaining of the test compound at time point t=100×˜[(AUC at time point t)/(AUC at T=0)]. A linear regression curve was fitted to a plot of natural logarithm (In) of AUC against time. The T-half (min)=0.693/slope.

half-life (Rat half life in vivo) [h]	half-life at 0.625 µM [1] [h]	EC50 (MRC5 cells; 72 h) [µM]	Compound	EC50 (MRC5 cells; Homo sapiens, MRC5, 72 h) [µM]
4.5	0.617	–	CNCCc1cnc2ccc(-c3ccc(F)cc3OCCc3c(C)nn(C)c3C)cn12 [Comparative Example 3, [2-(6-{4-fluoro-2-[2-(1,3,5-trimethyl-1H-pyrazol-4-yl)ethoxy]phenyl}imidazo[1,2-a]pyridin-3-yl)ethyl](methyl)amine]	5.4
8.3	1.95	–	CNC(=O)c1nn(C)c(C)c1CCOc1cc(F)ccc1-c1ccc2ncc(CCN)n2c1 [Comparative Example 2, 4-(2-{2-[3-(2-aminoethyl)imidazo[1,2-a]pyridin-6-yl]-5-fluorophenoxy}ethyl)-N,1,5-trimethyl-1H-pyrazole-3-carboxamide]	> 6.8
7.1	1.12	0.013	Cc1c(CCOc2cc(Cl)ccc2-c2ccc3ncc(CCN)n3c2)c(C(=O)N(C)C)nn1C [Example Compound 1, 4-(2-{2-[3-(2-aminoethyl)imidazo[1,2-a]pyridin-6-yl]-5-chlorophenoxy}ethyl)-N,N,1,5-tetramethyl-1H-pyrazole-3-carboxamide]	–
